Test results reported in patent publication US4482565A, “β-Lactam-containing antibacterial agents and β-lactamase inhibitors” (Farmitalia Carlo Erba S.p.A., priority 1981, dated 1984).
Converted amounts (≈) assume the structure as drawn. Like-named read-outs stand apart in the source and are kept apart here.

Columns and labels:
Type in all cases: cell-based
[1] = system: Staphylococcus aureus 209P; assay: in vitro antibacterial activity (MIC); details: collection strain, read-out: MIC (minimal inhibitory concentration)
[2] = system: Staphylococcus aureus 153; assay: in vitro antibacterial activity (MIC); details: lactamase producer, read-out: MIC (minimal inhibitory concentration)
[3] = system: Staphylococcus aureus PV2; assay: in vitro antibacterial activity (MIC); details: read-out: MIC (minimal inhibitory concentration)
[4] = system: Staphylococcus aureus Smith; assay: in vitro antibacterial activity (MIC); details: collection strain, read-out: MIC (minimal inhibitory concentration)
Streptococcus pyogenes = assay: in vitro antibacterial activity (MIC); details: read-out: MIC (minimal inhibitory concentration)
Escherichia coli B = assay: in vitro antibacterial activity (MIC); details: read-out: MIC (minimal inhibitory concentration)
Escherichia coli V14 = assay: in vitro antibacterial activity (MIC); details: read-out: MIC (minimal inhibitory concentration)
Escherichia coli V23 = assay: in vitro antibacterial activity (MIC); details: read-out: MIC (minimal inhibitory concentration)
Enterobacter sp V19 = assay: in vitro antibacterial activity (MIC); details: read-out: MIC (minimal inhibitory concentration)
[5] = system: Klebsiella pneumoniae ATCC 10031; assay: in vitro antibacterial activity (MIC); details: ATCC10031, Klebsiella pneumoniae ATCC 10031 (first listing), read-out: MIC (minimal inhibitory concentration)
Klebsiella sp. R2 = assay: in vitro antibacterial activity (MIC); details: read-out: MIC (minimal inhibitory concentration)
Proteus vulgaris V15 = assay: in vitro antibacterial activity (MIC); details: read-out: MIC (minimal inhibitory concentration)
Proteus mirabilis V15 = assay: in vitro antibacterial activity (MIC); details: read-out: MIC (minimal inhibitory concentration)
Proteus mirabilis 525 = assay: in vitro antibacterial activity (MIC)
Shigella flexneri = assay: in vitro antibacterial activity (MIC); details: read-out: MIC (minimal inhibitory concentration)
Procedure: A series of tests was carried out in vitro to compare the activities of (5R)-acetoxymethyl-2-acetoxymethyl-2-penum-3-carboxylate (Laboratory code FCE/20077/B40/341), (5R) acetoxymethyl-2-[(1-methyl-1H-tetrazol-5-yl)-thiomethyl]-2-penem-3-carboxylate (compound A), three reference compounds (ampicillin, cefoxitin, and thienamycin), and compound 387, which is (5R)-2-acetoxymethyl-6-(1-hydroxyethyl)-2-penem-3-carboxylic acid. The acetoxymethoxy ester of compound 387 is prepared in Example 51 and the sodium salt of the acid is prepared in Example 98 infra. Table 1 below reports the results of the above assays as MIC (minimal inhibitory concentration).

Pseudomonas aeruginosa = assay: in vitro antibacterial activity (MIC); details: read-out: MIC (minimal inhibitory concentration)
Salmonella typhimurium [6] = assay: in vitro antibacterial activity (MIC); details: Salmonella enterica, Salmonella typhimurium (first listing), read-out: MIC (minimal inhibitory concentration)
Salmonella panamae F15 = assay: in vitro antibacterial activity (MIC)
[7] = system: Salmonella Saint Paul F20; assay: in vitro antibacterial activity (MIC); details: read-out: MIC (minimal inhibitory concentration)
Salmonella derby F14 = assay: in vitro antibacterial activity (MIC); details: Salmonella enterica, read-out: MIC (minimal inhibitory concentration)
[8] = system: Salmonella montevideo F16; assay: in vitro antibacterial activity (MIC); details: Salmonella enterica, read-out: MIC (minimal inhibitory concentration)
Escherichia coli B Cef R = assay: in vitro antibacterial activity (MIC); details: read-out: MIC (minimal inhibitory concentration)
Escherichia coli RGN 238 = assay: in vitro antibacterial activity (MIC); details: RGN238, lactamase producer, read-out: MIC (minimal inhibitory concentration)
Escherichia coli P 453 = assay: in vitro antibacterial activity (MIC)
Escherichia coli R 997 = assay: in vitro antibacterial activity (MIC); details: R997, read-out: MIC (minimal inhibitory concentration)
Escherichia coli R 57 B = assay: in vitro antibacterial activity (MIC); details: R57B, read-out: MIC (minimal inhibitory concentration)
Escherichia coli RP 1 = assay: in vitro antibacterial activity (MIC); details: RP1, read-out: MIC (minimal inhibitory concentration)
Escherichia coli R 46 = assay: in vitro antibacterial activity (MIC)
Escherichia coli R 6 K = assay: in vitro antibacterial activity (MIC); details: R6K, read-out: MIC (minimal inhibitory concentration)
[9] = system: Pseudomonas aeruginosa FI; assay: in vitro antibacterial activity (MIC); details: collection strain, read-out: MIC (minimal inhibitory concentration)
[10] = system: Pseudomonas aeruginosa ATCC 2598; assay: in vitro antibacterial activity (MIC); details: ATCC2598, collection strain, read-out: MIC (minimal inhibitory concentration)
[11] = system: Klebsiella aerogenes ATCC 1082 E; assay: in vitro antibacterial activity (MIC)
[12] = system: Klebsiella pneumoniae ATCC 10031; assay: in vitro antibacterial activity (MIC), second listing of the strain; details: ATCC10031, collection strain (second listing), read-out: MIC (minimal inhibitory concentration)
[13] = system: Enterobacter cloacae P 99; assay: in vitro antibacterial activity (MIC); details: P99, read-out: MIC (minimal inhibitory concentration)
Enterobacter cloacae 214 = assay: in vitro antibacterial activity (MIC); details: lactamase producer, read-out: MIC (minimal inhibitory concentration)
[14] = system: Salmonella abortivoequina; assay: in vitro antibacterial activity (MIC); details: collection strain, read-out: MIC (minimal inhibitory concentration)
Salmonella typhimurium [15] = assay: in vitro antibacterial activity (MIC), collection strain; details: Salmonella enterica, read-out: MIC (minimal inhibitory concentration)
Proteus mirabilis = assay: as above; details: read-out: MIC (minimal inhibitory concentration)

Compound | MIC [1] [µg/mL] | MIC [2] [µg/mL] | MIC [3] [µg/mL] | MIC [4] [µg/mL] | MIC (Escherichia coli V14) [µg/mL] | MIC (Escherichia coli V23) [µg/mL] | MIC (Enterobacter sp V19) [µg/mL] | MIC [5] [µg/mL] | MIC (Klebsiella sp. R2) [µg/mL] | MIC (Proteus vulgaris V15) [µg/mL] | MIC (Proteus mirabilis V15) [µg/mL] | MIC (Shigella flexneri) [µg/mL] | MIC (Salmonella typhimurium [6]) [µg/mL] | MIC [7] [µg/mL] | MIC (Salmonella derby F14) [µg/mL] | MIC [8] [µg/mL] | MIC (Escherichia coli B Cef R) [µg/mL] | MIC (Escherichia coli RGN 238) [µg/mL] | MIC (Escherichia coli R 997) [µg/mL] | MIC (Escherichia coli RP 1) [µg/mL] | further results
CC1(C)S[C@@H]2[C@H](NC(=O)[C@H](N)c3ccccc3)C(=O)N2[C@H]1C(=O)O [Ampicillin] | ≤ 0.19 | 1.56 (≈ 4.46 µM) | ≤ 0.19 | ≤ 0.19 | 1.56 (≈ 4.46 µM) | 3.12 (≈ 8.93 µM) | > 100 | 50 (≈ 143 µM) | 50 (≈ 143 µM) | 1.56 (≈ 4.46 µM) | ≤ 0.19 | ≤ 0.19 | 0.78 (≈ 2.23 µM) | 0.78 (≈ 2.23 µM) | 0.78 (≈ 2.23 µM) | 0.78 (≈ 2.23 µM) | > 100 | > 100 | > 100 | > 100 | MIC (Streptococcus pyogenes; in vitro): 3.12 µg/mL (≈ 8.93 µM); MIC (Escherichia coli B; in vitro, Escherichia coli B, collection strain): 0.39 µg/mL (≈ 1.12 µM); MIC (Proteus mirabilis 525; in vitro, Proteus mirabilis 525, read-out: MIC (minimal inhibitory concentration)): 0.39 µg/mL (≈ 1.12 µM); MIC (Pseudomonas aeruginosa; in vitro): 25 µg/mL (≈ 71.5 µM); MIC (Salmonella panamae F15; in vitro, Salmonella panamae F15, read-out: MIC (minimal inhibitory concentration)): 0.78 µg/mL (≈ 2.23 µM); MIC (Escherichia coli P 453; P453, in vitro, Escherichia coli P 453, lactamase producer, read-out: MIC (minimal inhibitory concentration)): > 100 µg/mL; MIC (Escherichia coli R 57 B; in vitro, Escherichia coli R 57 B, lactamase producer): 25 µg/mL (≈ 71.5 µM); MIC (Escherichia coli R 46; R46, in vitro, Escherichia coli R 46, lactamase producer, read-out: MIC (minimal inhibitory concentration)): 25 µg/mL (≈ 71.5 µM); MIC (Escherichia coli R 6 K): > 100 µg/mL; MIC [9]: > 100 µg/mL; MIC [10]: > 100 µg/mL; MIC ([11]; ATCC1082, in vitro, Klebsiella aerogenes ATCC 1082 E, lactamase producer, read-out: MIC (minimal inhibitory concentration)): > 100 µg/mL; MIC [12]: 25 µg/mL (≈ 71.5 µM); MIC [13]: > 100 µg/mL; MIC (Enterobacter cloacae 214): > 100 µg/mL; MIC [14]: 0.19 µg/mL (≈ 0.544 µM); MIC (Salmonella typhimurium [15]; in vitro, Salmonella Typhimurium, collection strain (second listing)): 0.78 µg/mL (≈ 2.23 µM); MIC (Proteus mirabilis; in vitro, collection strain): > 100 µg/mL
CO[C@@]1(NC(=O)Cc2cccs2)C(=O)N2C(C(=O)O)=C(COC(N)=O)CS[C@@H]21 [Cefoxitin] | 0.78 (≈ 1.82 µM) | 0.78 (≈ 1.82 µM) | 0.78 (≈ 1.82 µM) | 0.78 (≈ 1.82 µM) | 3.12 (≈ 7.3 µM) | 12.5 (≈ 29.2 µM) | 12.5 (≈ 29.2 µM) | 0.78 (≈ 1.82 µM) | 12.5 (≈ 29.2 µM) | 0.78 (≈ 1.82 µM) | 0.78 (≈ 1.82 µM) | 0.78 (≈ 1.82 µM) | 3.12 (≈ 7.3 µM) | 3.12 (≈ 7.3 µM) | 3.12 (≈ 7.3 µM) | 3.12 (≈ 7.3 µM) | > 100 | 3.12 (≈ 7.3 µM) | 6.25 (≈ 14.6 µM) | 1.56 (≈ 3.65 µM) | MIC (Streptococcus pyogenes): 1.56 µg/mL (≈ 3.65 µM); MIC (Escherichia coli B; Escherichia coli): 1.56 µg/mL (≈ 3.65 µM); MIC (Proteus mirabilis 525; Proteus mirabilis, 525, read-out: MIC (minimal inhibitory concentration)): 1.56 µg/mL (≈ 3.65 µM); MIC (Pseudomonas aeruginosa): 6.25 µg/mL (≈ 14.6 µM); MIC (Salmonella panamae F15; Salmonella, F15, read-out: MIC (minimal inhibitory concentration)): 1.56 µg/mL (≈ 3.65 µM); MIC (Escherichia coli P 453; Escherichia coli, P453, read-out: MIC (minimal inhibitory concentration)): 1.56 µg/mL (≈ 3.65 µM); MIC (Escherichia coli R 57 B; Escherichia coli): 1.56 µg/mL (≈ 3.65 µM); MIC (Escherichia coli R 46; Escherichia coli, R46, read-out: MIC (minimal inhibitory concentration)): 1.56 µg/mL (≈ 3.65 µM); MIC (Escherichia coli R 6 K): 3.1 µg/mL (≈ 7.25 µM); MIC [9]: 6.25 µg/mL (≈ 14.6 µM); MIC [10]: > 100 µg/mL; MIC ([11]; Klebsiella aerogenes, ATCC1082, read-out: MIC (minimal inhibitory concentration)): 6.25 µg/mL (≈ 14.6 µM); MIC [12]: 0.78 µg/mL (≈ 1.82 µM); MIC [13]: 100 µg/mL (≈ 234 µM); MIC (Enterobacter cloacae 214): > 100 µg/mL; MIC [14]: 0.78 µg/mL (≈ 1.82 µM); MIC (Salmonella typhimurium [15]; TYPHIMURIUM): 1.56 µg/mL (≈ 3.65 µM); MIC (Proteus mirabilis): 1.56 µg/mL (≈ 3.65 µM)
